Where a chain is given by its changes, count along the chain named. In names and notes the source's numbering stands. Entries after “also recorded” stand apart in the source; their conditions may differ.
Assays:
[1] = tested on: NKT cells; assay: CD1d tetramers loaded with FVIII peptides incubated with spleen CD4+ T cells of FVIII-immunized hemophilia A mice, Facs; format: cell-based; details: for binding of CD1d tetramers loaded with peptide: spleen CD4+ T cells of hemophilia A mice injected IV with FVIII 2 IU on 4 occasions, 15 aminoacid long peptides
Procedure: To determine whether these sequences could activate NKT cells in vivo, FVIII (2 IU) was injected intravenously to hemophilia A mice on 4 occasions separated by a 1-week interval. Hemophilia A mice produce no FVIII due to a stop codon introduced in the FVIII gene in exon 16.
Mice were sacrificed 10 days after the last injection, the spleen was removed and CD4+ T cells were prepared by magnetic bead sorting. NKT cells are characterized by expression of CD4 and recognition of antigen presented by CD1d molecule. A tetramer of CD1d was obtained from a commercial supplier and loaded with 15 aminoacid long FVIII peptides, which included peptides containing SEQ ID1, SEQ ID2 and SEQ ID3.
Hemophilia A mice were immunized with 2 IU Factor VIII on 4 occasions separated by one week. The spleen was then removed and CD4+ T cells were prepared by magnetic bead sorting. A fluorochrome-labeled tetramer of CD1d was obtained from a commercial supplier and loaded with 15 aminoacid long FVIII peptides, which included peptides containing SEQ ID1, ID2 and ID3. Loading was carried out at room temperature overnight in the dark.
Tetramers were then incubated for 30 minutes at 4° C. with the CD4+ T cell population and the cell suspension was analyzed by Facs.

[2] = tested on: hemophilia A mice; assay: direct immunization of hemophilia A mice with peptides containing a CD1d motif; format: in vivo; details: direct immunization with peptide
Procedure: Hemophilia A mice were immunized 3 times subcutaneously with 50 μg of an equimolar mixture of peptides of SEQ ID1 (44pept) and peptide of SEQ ID2 (256pept) adsorbed on aluminum hydroxyde. A control group received physiological serum instead of peptides. Plasma was taken 10 days after the last immunization and assessed for the presence of anti-Factor VIII antibodies, using a direct binding assay. Briefly, Factor VIII (10 IU/ml) was insolubilized on polystyrene plates, which were washed and incubated with a 1/10 dilution of plasma. After a further washing, a HRP-labeled goat anti-mouse antiserum was added, followed by an enzyme substrate. Colour development was read as OD.

[3] = tested on: CD4+ NKT cells; assay: intranasal Der p 1 in BALB/c mice, spleen CD4+ T cells stained with peptide-loaded CD1d tetramers (facs); format: in vivo; details: for percentage of CD4+ T cells stained with CD1d tetramers loaded with peptide: mice given natural sequence Der p 1 intranasally, 100 μg
Procedure: Peptides of SEQ ID13, SEQ ID14 and SEQ ID15 were synthesized and used to load CD1d tetramers.
BALB/c mice were submitted to intranasal administration of Der p 1, using 50 μl of saline containing 100 μg of Der p 1. This challenge procedure was repeated twice on three consecutive days at one-week interval. The mice were sacrificed 5 days after the last nasal instillation and the spleen was removed. CD4+ T cells were purified by magnetic bead sorting and incubated in the presence of the CD1d tetramers loaded with peptides of SEQ ID13, SEQ ID14 or SEQ ID15. By fluorescence-activated cell sorter (facs) determination, it was observed that a significant percentage of cells (±10%) were stained with the tetramers, identifying them as CD4+ NKT cells. It was therefore concluded that peptides of SEQ ID13, SEQ ID14 and SEQ ID15 were functional in binding to CD1d and in being recognized by NKT cells.
Next, a mutated form of Der p 1 was prepared by genetic engineering, in which the 3 aminoacid residues predicted to be in position P1 for CD binding of peptides of SEQ ID13, SEQ ID14 and SEQ ID15 were substituted by serine. The mutated Der p 1 (SEQ ID16) was used for nasal instillation as described above with Der p 1 in natural sequence (SEQ ID17).

[4] = tested on: NKT cells; assay: activation of NKT cells in vitro by human dendritic cells loaded with peptide or polypeptide; format: cell-based
Procedure: (§1) Synthetic peptides corresponding to SEQ ID9 and SEQ ID10 were produced. Their capacity to activate NKT cells was determined in vitro using human dendritic cells derived from peripheral blood monocytes of an individual sensitized to Mal d 1. Dendritic cells loaded with each one of the two peptides were incubated in the presence of NKT cells obtained from the same individual by sorting peripheral lymphocytes using specific markers such as CD4 and NKG2D.
(§2) As for Mal d 1, human CD1d tetramers loaded with a synthetic peptide representing the motif identified in the polypeptide of […]

[5] = tested on: NKT cells; assay: human CD1d tetramers loaded with peptides, recognition by NKT cells; format: cell-based; details: Mal d 1 peptides
Procedure: as §1, §2

[6] = tested on: NKT cells; assay: human CD1d tetramers loaded with IgG peptides, peripheral blood CD4+ T cells of patients given a therapeutic antibody (facs); format: cell-based; details: patients injected with a therapeutic antibody during the previous 5 days
Procedure: Synthetic peptides corresponding to SEQ ID18, SEQ ID19 and SEQ ID20 were produced and used to load human CD1d tetramers as for the examples above (see for instance example 4 for allergen Der p 1). Peripheral blood cells were obtained by venous puncture of patients who had received an injection of a therapeutic antibody during the previous 5 days. CD4+ T cells were purified by magnetic bead sorting. The cells were then incubated with tetramers loaded with peptides of SEQ ID18, SEQ ID19 or SEQ ID20. Analysis by facs identifies a significant proportion of NKT cells (±10%) labeled by tetramers.

[7] = tested on: NKT cells; assay: JAWS2 cells loaded with Der p 1, production of IFN-gamma and IL-4 as markers of NKT activation; format: cell-based; details: JAWS2 cells loaded with the protein; cells from mice immunized with natural sequence Der p 1
Procedure: CD4+ T cells obtained from the above experiments were incubated in culture medium in the presence of an antigen-presenting cell which expresses the CD1d molecule. […] JAWS2 cells were loaded with Der p 1 and presentation of Der p 1-derived epitopes by CD1d was evaluated by measuring the production of cytokines such as IFN-gamma and IL-4 as markers of NKT activation.
Further, mutated Der p 1 (SEQ ID16) was used to load JAWS2 cells and tested for its capacity to activate NKT cells. For this experiment, NKT cells were used as obtained from mice immunized with Der p 1 in either natural or mutated configuration. The production of IFN-gamma and IL-4 was taken as an indication of NKT activation.

[8] = dendritic cells and NKT cells of an individual sensitized to Mal d 1
[9] = alpha-gliadin polypeptide presented by antigen-presenting dendritic cells, same procedure as for Mal d 1

FHAINGY [SEQ ID3, FVIII A3 domain aminoacids 1918-1924 CD1d motif; tested as 15 aminoacid long FVIII peptide containing it]
binding of CD1d tetramers loaded with peptide [1]: Significant binding
activation of NKT cells [2]: sufficient as to elicit the activation of NKT cells

FSGVAAT (listed as Dermatophagoides pteronyssinus) [SEQ ID13, aminoacids 38-44 of Der p 1]
percentage of CD4+ T cells stained with CD1d tetramers loaded with peptide [3]: ~10%

HSAIAAVI (listed as Dermatophagoides pteronyssinus) [SEQ ID14, aminoacids 135-141 of Der p 1]
percentage of CD4+ T cells stained with CD1d tetramers loaded with peptide [3]: ~10%

FKLIESY (listed as Malus domestica) [SEQ ID9, synthetic peptide, aminoacids 144-150 of Mal d 1]
activation of NKT cells [4, 8]: activated a significant proportion of NKT cells
recognition of peptide-loaded human CD1d tetramers by NKT cells [5]: recognized by a significant proportion of NKT cells

YRVVSVL (listed as Homo sapiens) [SEQ ID18, CH2 of IgG1 and IgG4]
proportion of NKT cells labeled by tetramers [6]: ~10%

FRVVSVL (listed as Homo sapiens) [SEQ ID19, CH2 of IgG2 and IgG3]
proportion of NKT cells labeled by tetramers [6]: ~10%

FWKVQHH (listed as Homo sapiens) [SEQ ID2, FVIII A3 domain aminoacids 1816-1822 CD1d motif; tested as 15 aminoacid long FVIII peptide containing it]
binding of CD1d tetramers loaded with peptide [1]: Significant binding
activation of NKT cells [2]: sufficient as to elicit the activation of NKT cells

SKLIESS (listed as Malus domestica) [SEQ ID10, synthetic peptide of Mal d 1 motif with F144S and Y150S mutations]
activation of NKT cells [4, 8]: did not
proportion of NKT cells recognizing peptide-loaded human CD1d tetramers [5]: less than 1%

HEALHNH (listed as Homo sapiens) [SEQ ID20, CH3 loop of IgG1, IgG2 and IgG4]
proportion of NKT cells labeled by tetramers [6]: ~10%

YPYVVIL (listed as Dermatophagoides pteronyssinus) [SEQ ID15, aminoacids 216-222 of Der p 1]
percentage of CD4+ T cells stained with CD1d tetramers loaded with peptide [3]: ~10%

FCHISSH (listed as Homo sapiens) [SEQ ID1, FVIII A1 domain aminoacids 309-315 CD1d motif; tested as 15 aminoacid long FVIII peptide containing it]
% of NKT cells recognizing peptide-loaded CD1d tetramers ([1]; FIG. 1, CD4+ T cells of hemophilia A mice immunized with Factor VIII): Up to 45%
binding of CD1d tetramers loaded with peptide [1]: Significant binding
activation of NKT cells [2]: sufficient as to elicit the activation of NKT cells; also recorded: Prominent activation

B1: Der p 1: cysteine protease, main allergen of house dust mite D. pteronyssinus, natural sequence (protein, listed as Dermatophagoides pteronyssinus)
chain: ETNACSINGNAPAEIDLRQMRTVTPIRMQGGCGSCWAFSGVAATESAYLAYRNQSLDLAEQELVDCASQHGCHGDTIPRGIEYIQHNGVVQESYYRYVAREQSCRRPNAQRFGISNYCQIYPPNVNKIREALAQTHSAIAVIIGIKDLDAFRHYDGRTIIQRDNGYQPNYHAVNIVGYSNAQGVDYWIVRNSWDTNWGDNGYGYFAANIDLMMIEEYPYVVIL
NKT activation (production of IFN-gamma and IL-4) [7]: significant production of cytokines

B2: SEQ ID16: mature Der p 1 with P1 anchoring residues F38S, H135S and Y216S mutated (protein, listed as Dermatophagoides pteronyssinus)
chain: B1 chain with F38S, H136S, Y217S
binding of CD4+ T cell splenocytes to tetramers loaded with peptide of SEQ ID13, SEQ ID14 or SEQ ID15 ([3]; mice given the protein by nasal instillation): no significant binding
NKT activation (production of IFN-gamma and IL-4) [7]: failed to be activated

B3: SEQ ID11: alpha-gliadin polypeptide, natural sequence with CD1d binding motif (protein, listed as Homo sapiens)
chain: MVRVPVPQLQPQNPSQQQPQEQVPLVQQQQFPGQQQPFPPQQPYPQPQPFPSQQPYLQLQPFPQPQLPYPQPQLPYPQPQLPYPQPQPFRPQQPYPQSQPQYSQPQQPISQQQQQQQQQQQQKQQQQQQQQILQQILQQQLIPCRDVVLQQHSIAYGSSQVLQQSTYQLVQQLCCQQLWQIPEQSRCQAIHNVVHAIILHQQQQQQQQQQQQPLSQVSFQQPQQQYPSGQGSFQPSQQNPQAQGSVQPQQLPQFEEIRNLALETLPAMCNVYIPPYCTIAPVGIFGTNYR
activation of NKT cells [4, 9]: activated a significant proportion of NKT cells

B4: SEQ ID12: mutated form of alpha-gliadin in which the F residue of the motif was substituted by S (protein, listed as Homo sapiens)
chain: B3 chain with Y56S, Y167S, H191S, F254S, Y276S
activation of NKT cells [4, 9]: failed to do so

Reference: patent US11091512B2, “Modulation of antigen immunogenicity by deleting epitopes recognized by NKT cells” (Imnate Sarl, priority 2010, dated 2021)
